One block for each compound: values may come before it. Bridge positions count the residues as written; N and C are the ends. Ends that are not written are not given here. Peptide text beside a SMILES is read from it.
Legend:
elastase = elastase (Sus scrofa, UniProt P00772); test: in vitro
Procedure, shortened: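 Peptides and elastase (0.5 μg/μL solution) each pre-warmed 5 min at 37° C, then mixed; aliquots taken at 1.5 to 60.0 min and quenched with 10% TFA. Remaining intact peptide quantified as RP-HPLC peak area.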

[1] = target: T1, interaction of PCSK9-LDLR (Homo sapiens, UniProt Q8NBP7); test: PCSK9-LDLR in vitro binding assay (inhibitory rate); details: for inhibitory activity on the interaction between PCSK9 and LDLR (in words): in vitro
T1 construct: purchased MBL Company, Beijing, China CY-8150
Procedure: Polypeptide PCSK9_1-14 (SEQ ID NOs: 210-223) is dissolved in pure water or DMSO. 85 μL reaction buffer, 5 μL 1 mM polypeptide sample and 10 μL 750 ng/mL PCSK9 protein was pre-incubated at room temperature for 20 minutes before being added to a 96 well plate. The OD450/540 nm value was measured according to the instructions of the PCSK9-LDLR in Vitro Binding Assay Kit (CY-8150, MBL Company, Beijing, China). Solvent control: replace polypeptide with 5 μL solvent. In 100 μL reaction system, the final concentration of the polypeptide and PCSK9 is 50 μM and 75 ng/mL, respectively.
Inhibition rate of polypeptide (%)=(OD450/540 nm(solvent control)−OD450/540 nm (sample))/OD450/540 nm(solvent control)×100

chymotrypsin = chymotrypsin (Bos taurus, UniProt P00766); test: in vitro
Procedure, shortened: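 Peptide and 0.05 μg/μL chymotrypsin were preincubated at 37 °C for 5 min, then mixed. Aliquots taken from 1.5 up to 60.0 min were quenched with 10% TFA, and remaining peptide was measured as RP-HPLC peak area.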

[2] = test system: P407-induced hyperlipidemia mice; test: Subcutaneous injection of PCSK9 inhibitory peptide, serum total cholesterol in P407-induced hyperlipidemia mice; type: in vivo, mouse; details: for TC 15 min: 15 min after administration; for TC 30 min: 30 min after administration; for TC 60 min: 60 min after administration; for TC 90 min: 90 min after administration; for serum total cholesterol (TC) level after subcutaneous injection (in words): 2 μmol/kg single s.c., P407-induced hyperlipidemia mice
Procedure: The experimental peptide sample was prepared using PEG400 with a final concentration of […], and the final concentration of PEG400 is 20% (w/v). Normal ICR mice were fasted overnight with water ad libitum. The next day, all of the mice were randomly divided into model control group (Con) and polypeptide administration group (2 μmol/kg) according to body weight. Then, all of the mice were intraperitoneally injected with P407 (500 mg/kg) and fed with feed 2 hours later. Six mice were taken as a normal control group (Nor). After 24 hours, the mice in Con were subcutaneously injected with saline containing 20% PEG400, and the mice in the treatment group were given peptides. Then, the blood was taken at different time points after administration to determine the serum total cholesterol (TC) level. In consideration of the complexity of factors affecting serum LDL-C levels, especially the differences between single and long-term administration, the in vivo activity of PCSK9 inhibitory peptide is mainly observed for changes in serum TC levels.

[3] = isolated enzyme elastase, pH 8, Residual peak area (%)/elastase
[4] = isolated enzyme chymotrypsin, pH 7.8, Residual peak area (%)/chymotrypsin
[5] = serum, subcutaneous 2 μmol/kg, mean ± sd

Sequence of elastase (P00772 27-266): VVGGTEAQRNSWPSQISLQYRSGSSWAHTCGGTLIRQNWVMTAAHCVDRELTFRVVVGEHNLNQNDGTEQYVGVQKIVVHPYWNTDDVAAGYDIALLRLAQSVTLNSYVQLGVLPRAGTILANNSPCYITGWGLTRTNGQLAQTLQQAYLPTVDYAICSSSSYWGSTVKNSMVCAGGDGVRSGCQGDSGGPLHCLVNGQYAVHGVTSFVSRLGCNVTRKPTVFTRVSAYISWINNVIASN

Compound: CC[C@H](C)[C@@H]1NC(=O)[C@@H]2CCCN2C(=O)[C@@H]2CCCN2C(=O)[C@H]([C@@H](C)CC)NC(=O)[C@H](CO)NC(=O)[C@H](CCCCN)NC(=O)[C@H]([C@@H](C)O)NC(=O)[C@H](C)NC(=O)[C@H](CCCNC(=N)N)NC(=O)CNC(=O)[C@@H](NC(=O)[C@@H](NC(=O)[C@H](Cc2ccc(O)cc2)NC(=O)[C@H](CC(=O)O)NC(=O)[C@H](CC(C)C)NC(=O)[C@H](Cc2ccc(O)cc2)NC(=O)[C@H](CCC(=O)O)NC(=O)[C@H](CCC(=O)O)NC(=O)[C@@H](N)Cc2c[nH]c3ccccc23)C(C)C)CSSC[C@@H](C(=O)N[C@@H](Cc2ccccc2)C(=O)NCC(=O)N[C@H](C(=O)N[C@H](C(=O)N[C@@H](Cc2ccccc2)C(=O)N[C@H](C(=O)N[C@@H](CO)C(=O)O)[C@@H](C)O)C(C)C)[C@@H](C)O)NC1=O [PCSK9_6] (H-WEEYLDYVCGRATKSIPPICFGTVFTS-OH; disulfide 9-20)
- Residual peak area (%)/elastase (elastase): 100.0 ± 0.0%
- stability towards elastase hydrolysis (in words) (elastase): certain inhibitory effects on the other two proteases chymotrypsin and elastase
- remaining at 0.025 h, 60 μM (elastase; [3]): 62.9 ± 4.8%
- remaining at 0.05 h, 60 μM (elastase; [3]): 59.3 ± 10.9%
- remaining at 0.075 h, 60 μM (elastase; [3]): 56.4 ± 5.3%
- remaining at 0.1 h, 60 μM (elastase; [3]): 55.3 ± 6.8%
- remaining at 0.15 h, 60 μM (elastase; [3]): 67.8 ± 9.3%
- remaining at 0.25 h, 60 μM (elastase; [3]): 48.9 ± 9.4%
- remaining at 0.5 h, 60 μM (elastase; [3]): 39.6 ± 1.2%
- remaining at 1 h, 60 μM (elastase; [3]): 48.3 ± 9.4%
- inhibition at 50 µM ([1]; sample 50 μM, PCSK9 75 ng/mL): 87 ± 1.1%
- Residual peak area (%)/chymotrypsin (chymotrypsin): 100.0 ± 0.0%
- stability towards chymotrypsin hydrolysis (in words) (chymotrypsin): certain inhibitory effects on the other two proteases chymotrypsin and elastase
- remaining at 0.025 h, 60 μM (chymotrypsin; [4]): 59.9 ± 8.2%
- remaining at 0.05 h, 60 μM (chymotrypsin; [4]): 47.1 ± 8%
- remaining at 0.075 h, 60 μM (chymotrypsin; [4]): 33.6 ± 3%
- remaining at 0.1 h, 60 μM (chymotrypsin; [4]): 33.9 ± 3.2%
- remaining at 0.15 h, 60 μM (chymotrypsin; [4]): 25.9 ± 3.3%
- remaining at 0.25 h, 60 μM (chymotrypsin; [4]): 14.5 ± 0.8%
- remaining at 0.5 h, 60 μM (chymotrypsin; [4]): 2.2 ± 0.1%
- remaining at 1 h, 60 μM (chymotrypsin; [4]): 1 ± 0.9%

Compound: Trp-Glu-Glu-Ala-Leu-Asp-Trp-Val-Cys-Gly-Arg-Ala-Thr-Lys-Ser-Ile-Pro-Pro-Ile-Cys-Phe-Gly-Thr-Val-Phe-Thr-Ser (WEEALDWVCGRATKSIPPICFGTVFTS; disulfide 9-20 (inferred)) [PCSK9_5]
- inhibitory activity on the interaction between PCSK9 and LDLR (in words) [1]: good inhibitory activity on the interaction between PCSK9 and LDLR
- inhibitory activity on the interaction between PCSK9 and LDLR (in words) ([1]; listed as SEQ ID NO: 214): good inhibitory effects in vitro
- serum total cholesterol (TC) level after subcutaneous injection (in words) [2]: reduced serum TC level
- serum total cholesterol (TC) level after subcutaneous injection (in words) ([2]; listed as SEQ ID NO: 214): excellent lowering lipid (total cholesterol) activities in vivo
- TC 15 min [2, 5]: 3050 ± 524 µg/mL
- TC 30 min [2, 5]: 3236 ± 542 µg/mL
- TC 60 min [2, 5]: 3089 ± 523 µg/mL
- TC 90 min [2, 5]: 2980 ± 591 µg/mL

Compound: Trp-Glu-Glu-Ala-Leu-Asp-Trp-Val-Gly-Phe-Cys-Thr-Tyr-Ser-Ile-Pro-Pro-Gln-Cys-Tyr-Gly-Thr-Val-Phe-Thr-Ser (WEEALDWVGFCTYSIPPQCYGTVFTS; disulfide 11-19 (inferred)) [PCSK9_5CH]
- inhibitory activity on the interaction between PCSK9 and LDLR (in words) [1]: good inhibitory activity on the interaction between PCSK9 and LDLR
- inhibitory activity on the interaction between PCSK9 and LDLR (in words) ([1]; listed as SEQ ID NO: 228): good inhibitory effects in vitro
- TC 15 min [2, 5]: 3002 ± 716 µg/mL
- TC 30 min [2, 5]: 3067 ± 685 µg/mL
- TC 60 min [2, 5]: 3023 ± 1035 µg/mL
- TC 90 min [2, 5]: 2705 ± 741 µg/mL

Compound: Thr-Val-Phe-Thr-Ser-Trp-Glu-Glu-Ala-Leu-Asp-Trp-Val-Cys-Gly-Arg-Ala-Thr-Lys-Ser-Ile-Pro-Pro-Ile-Cys-Phe (TVFTSWEEALDWVCGRATKSIPPICF; disulfide 14-25 (inferred)) [PCSK9_2]
- inhibitory activity on the interaction between PCSK9 and LDLR (in words) [1]: good inhibitory activity on the interaction between PCSK9 and LDLR
- inhibitory activity on the interaction between PCSK9 and LDLR (in words) ([1]; listed as SEQ ID NO: 211): good inhibitory effects in vitro
- TC 30 min [2, 5]: 3079 ± 1081 µg/mL
- TC 60 min [2, 5]: 3178 ± 1039 µg/mL
- TC 90 min [2, 5]: 3078 ± 1044 µg/mL
- TC 120 min ([2]; serum, subcutaneous 2 μmol/kg, 120 min after administration, mean ± sd): 295.5 ± 95.4 mg/dL

Continued, in another order:

- inhibitory activity on the interaction between PCSK9 and LDLR (in words) ([1]; listed as SEQ ID NO: 217): good inhibitory effects in vitro
Compound: PCSK9_8: Pep2-8 analogue containing the anti-trypsin peptide scaffold BT9 (Table 23) (TVFTSGCGRATKSIPPICFSWEEYLDWV; disulfide 7-18 (inferred))
- inhibitory activity on the interaction between PCSK9 and LDLR (in words) [1]: good inhibitory activity on the interaction between PCSK9 and LDLR
- TC 15 min [2, 5]: 2269 ± 489 µg/mL
- TC 30 min [2, 5]: 2216 ± 465 µg/mL
- TC 60 min [2, 5]: 2074 ± 470 µg/mL
- TC 90 min [2, 5]: 2037 ± 509 µg/mL

- inhibitory activity on the interaction between PCSK9 and LDLR (in words) ([1]; listed as SEQ ID NO: 232): good inhibitory effects in vitro
Compound: Thr-Val-Phe-Thr-Ser-Gly-Phe-Cys-Thr-Tyr-Ser-Ile-Pro-Pro-Gln-Cys-Tyr-Gly-Trp-Glu-Glu-Tyr-Leu-Asp-Trp-Val (TVFTSGFCTYSIPPQCYGWEEYLDWV; disulfide 8-16 (inferred)) [PCSK9_9CH]
- inhibitory activity on the interaction between PCSK9 and LDLR (in words) [1]: good inhibitory activity on the interaction between PCSK9 and LDLR
- TC 15 min [2, 5]: 3727 ± 1154 µg/mL
- TC 30 min [2, 5]: 4212 ± 753 µg/mL
- TC 60 min [2, 5]: 3658 ± 664 µg/mL
- TC 90 min [2, 5]: 2891 ± 710 µg/mL

- inhibitory activity on the interaction between PCSK9 and LDLR (in words) ([1]; listed as SEQ ID NO: 233): good inhibitory effects in vitro
Compound: Thr-Val-Phe-Thr-Ser-Gly-Ile-Cys-Thr-Ala-Ser-Ile-Pro-Pro-Ile-Cys-Gln-Trp-Glu-Glu-Tyr-Leu-Asp-Trp-Val (TVFTSGICTASIPPICQWEEYLDWV; disulfide 8-16 (inferred)) [PCSK9_9EC]
- inhibitory activity on the interaction between PCSK9 and LDLR (in words) [1]: good inhibitory activity on the interaction between PCSK9 and LDLR
- TC 15 min [2, 5]: 2789 ± 797 µg/mL
- TC 30 min [2, 5]: 2744 ± 909 µg/mL
- TC 60 min [2, 5]: 2676 ± 783 µg/mL
- TC 90 min [2, 5]: 2657 ± 838 µg/mL

Source: patent US20230416329A1, “A PEPTIDE WITH DISULFIDE BONDS AND INHIBITORY ACTIVITY AGAINST SERINE PROTEASES, DERIVED HYBRID PEPTIDES THEREOF, AND USES THEREOF” (INSTITUTE OF MATERIA MEDICA , CHINESE ACADEMY OF MEDICAL …, priority 2020, published 2023)
